These results are taken from patent US5688992A, “O-malonyltryrosyl compounds, O-malonyltryrosyl compound-containing peptides, and use thereof” (The United States of America as represented by the …, priority 1995, dated 1997).

Like-named read-outs stand apart in the source and are kept apart here. Square brackets hold non-standard residues; d marks the D form. Peptide text beside a SMILES is read from it. * marks the point of attachment. F2Pmp = N[C@@H](Cc1ccc(C(F)(F)P(=O)(O)O)cc1)C(=O)O; pY = N[C@@H](Cc1ccc(OP(=O)(O)O)cc1)C(=O)O; L‑OMT = L-O-malonyltyrosine; X1 = O=C(O)C(C(=O)O)* Where only a bound is given, the exact number is not on record here.

One experiment has as its target T1, recombinant PTP 1B (Homo sapiens, UniProt P18031).
T1 sequence (P18031 1-435): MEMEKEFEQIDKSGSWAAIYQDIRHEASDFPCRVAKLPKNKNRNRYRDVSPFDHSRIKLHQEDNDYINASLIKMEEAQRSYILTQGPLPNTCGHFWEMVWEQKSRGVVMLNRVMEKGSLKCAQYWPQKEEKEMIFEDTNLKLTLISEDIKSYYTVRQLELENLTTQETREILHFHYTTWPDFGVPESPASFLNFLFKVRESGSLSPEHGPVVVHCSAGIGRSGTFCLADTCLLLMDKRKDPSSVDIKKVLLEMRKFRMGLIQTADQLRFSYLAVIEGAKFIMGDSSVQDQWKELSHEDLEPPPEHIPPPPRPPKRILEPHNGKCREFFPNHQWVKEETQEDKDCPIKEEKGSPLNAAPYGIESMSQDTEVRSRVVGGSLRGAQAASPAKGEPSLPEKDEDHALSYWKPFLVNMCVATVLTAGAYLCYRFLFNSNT
The experiment is described as follows: Insulin receptor dephosphorylation by recombinant PTP 1B. Type of experiment: biochemical. As to conditions: 32P-labeled autophosphorylated insulin receptor as substrate; read-out: inhibition constant / IC50 against PTP 1B dephosphorylation of insulin receptor. On the procedure:
WGA-purified human insulin receptors were autophosphorylated with [γ-^32 P]ATP as previously described (Liotta, A.S., et al., J. Biol. Chem. 269:22996-23001 (1994)), and this ^32 P-labeled insulin receptor was used as substrate for the assay of PTP 1B activity, essentially following the method described by Burke et al. (Burke, T. R. Jr., Biochem, Biophys. Res. Commun. 204:129-134 (1994)). In brief, ^32 P-labeled autophosphorylated insulin receptors (10 μg/ml) were incubated with 0.5 μg/ml recombinant PTP 1B at 22° C. in a 100 μl reaction containing 50 mM HEPES, pH 7.5, 0.1 mg/ml BSA, 5 mM DTT, 5 mM EDTA, 0.05% Triton X-100, in the absence or presence of various peptides at the indicated concentrations. […] The ^32 P remaining in the 95 kDa insulin receptor β-subunit was quantified by Betagen counting of the fixed and dried gels.
The peptide Ac-D-A-D-E-OMT-L-amide (SEQ. ID. NO. 8) was then examined for inhibitor potency against PTB-1B dephosphorylation of phosphorylated insulin receptor. […] The ^32 P remaining in the 95 kDa insulin receptor β-subunit was quantified by Betagen counting of the fixed and dried gels. […]

The target in experiment [1] is C-terminal SH2 domain of PI 3-kinase p85 (Homo sapiens, UniProt P27986). The experiment can be described thus: SH2 domain competition binding assay, PI 3-kinase p85 C-terminal SH2. As to conditions: X = L-OMT; GST/SH2 fusion vs [125I] IRS-1 pY628 phosphopeptide; read-out: IC50 ± S.E., p85 (C-terminal) SH2 domain. On the procedure: (§1) Details of the […] domain competition assay are described by Piccione, E., et al., Biochemistry 32:3197-3202 (1993). Briefly, four distinct assays were used to determine relative SH2 domain affinities for pTyr analogues vs. high affinity phosphopeptide ligands. In each assay a glutathione S-transferase (GST)/SH2 domain fusion protein was paired with an appropriate high-affinity [^125 I]Bolton-Hunter radiolabeled phosphopeptide, and varying concentrations of unlabeled peptides were added as competitors. The C-terminal SH2 domain of PI 3-kinase p85 was paired with IRS-1pY628, GNGDpYMPMSPK (SEQ ID NO. 5) (See Piccione, E., et al., Biochemistry 32:3197-3202 (1993)), the Src SH2 domain was paired with hmt pY324, KEPQpYEEIPIYL (SEQ ID NO. 6) (See Payne, G., et al., Proc. Natl. Acad. Sci. USA 90:4902-4906 (1993), the PLCγ-C SH2 domain was paired with PDGF pY1021, DNDpYIIPLPDPK (SEQ ID NO. 7) (See Piccione, E., et al., Biochemistry 32:3197-3202 (1993)), and the Lck SH2 domain was paired with the hmTpY324 sequence similar to assays conducted on the Src SH2 domain. An underline denotes the position of the [^125 I]Bolton-Hunter modified lysine. […] Following centrifugation for 5 min at 12,000 g, supematant solutions were removed by aspiration and [^125 I]radioactivity associated with the unwashed pellets was determined with a γ-counter.

Experiment [2] deals with SH-PTP2 mediated mitogenic signaling in rat 1 fibroblasts. As to conditions: Xiao 1994; cited from earlier work.
For experiment [3], the target named is T2, N-terminal SH-PTP2 SH2 domain (Homo sapiens, UniProt Q06124).
T2 sequence (Q06124 6-102 limits assumed): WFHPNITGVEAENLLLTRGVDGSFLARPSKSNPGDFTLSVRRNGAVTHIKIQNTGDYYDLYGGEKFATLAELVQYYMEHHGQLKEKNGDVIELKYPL
As to conditions: X = pTyr or L-F2Pmp; previously reported (Xiao 1994); cited from earlier work.

Experiment [4] deals with T2, N-terminal SH-PTP2 SH2 domain. The experiment can be described thus: SH2 domain competition binding assay, SH-PTP2 N-terminal SH2. The following applies: X = L-OMT; read-out: IC50 ± S.E., SH-PTP2 (N-terminal) SH2 domain.
The target in a further experiment is T3, Grb2 SH2 domain (Homo sapiens, UniProt P62993).
T3 construct: against the Grb2 SH2 domain construct
The experiment is described as follows: SH2 domain competition binding assay, Grb2 SH2.

Another experiment concerns the target T4, Src SH2 domain (Homo sapiens, UniProt P12931).
T4 construct: the Src SH2 domain was paired with hmt pY324
The experiment is described as follows: SH2 domain competition binding assay, Src SH2. As to conditions: X = L-OMT; GST/SH2 fusion vs [125I] hmT pY324 phosphopeptide; read-out: IC50 ± S.E., Src SH2 domain. On the procedure:
as §1

As to `CC(=O)N[C@@H](CC(=O)O)C(=O)N[C@@H](C)C(=O)N[C@@H](CC(=O)O)C(=O)N[C@@H](CCC(=O)O)C(=O)N[C@@H](Cc1ccc(OC(C(=O)O)C(=O)O)cc1)C(=O)N[C@@H](CC(C)C)C(N)=O` [Ac-D-A-D-E-OMT-L-amide, Ac-Asp-Ala-Asp-Glu-[L-OMT]-Leu-amide] (Ac-DADEY(X1)L-NH2), the IC50 at recombinant PTP 1B is roughly 10 µM.
For the compound `CSCC[C@H](NC(=O)[C@@H]1CCCN1C(=O)[C@@H](NC(=O)[C@H](Cc1ccc(OC(C(=O)O)C(=O)O)cc1)NC(=O)[C@H](CC(=O)O)NC(C)=O)C(C)C)C(=O)N[C@@H](CC(C)C)C(N)=O` [peptide no. 6, Ac-Asp-[L-OMT]-Val-Pro-Met-Leu-amide] (Ac-DY(X1)VPML-NH2), the IC50 in experiment [1] is 14.2 µM.
Turning to “10 (X = L-F2Pmp): Ac-L-N-X-I-D-L-D-L-V-amide with X = L-F2Pmp in place of L-OMT (Ac-LN[F2Pmp]IDLDLV-NH2; SMILES CC[C@H](C)[C@H](NC(=O)[C@H](Cc1ccc(C(F)(F)P(=O)(O)O)cc1)NC(=O)[C@H](CC(N)=O)NC(=O)[C@H](CC(C)C)NC(C)=O)C(=O)N[C@@H](CC(=O)O)C(=O)N[C@@H](CC(C)C)C(=O)N[C@@H](CC(=O)O)C(=O)N[C@@H](CC(C)C)C(=O)N[C@H](C(N)=O)C(C)C)”, the “effect on SH-PTP2 mediated mitogenic signaling” value in experiment [2] is on record as “block SH-PTP2 mediated mitogenic signaling”. Also, the IC50 in experiment [3] is 23 µM.
In the case of “10 (X = pTyr): Ac-L-N-X-I-D-L-D-L-V-amide with X = pTyr in place of L-OMT (Ac-LN[pY]IDLDLV-NH2; SMILES CC[C@H](C)[C@H](NC(=O)[C@H](Cc1ccc(OP(=O)(O)O)cc1)NC(=O)[C@H](CC(N)=O)NC(=O)[C@H](CC(C)C)NC(C)=O)C(=O)N[C@@H](CC(=O)O)C(=O)N[C@@H](CC(C)C)C(=O)N[C@@H](CC(=O)O)C(=O)N[C@@H](CC(C)C)C(=O)N[C@H](C(N)=O)C(C)C)”, the IC50 in experiment [3] is 4 µM.
For the compound “Ac-Leu-Asn-[L-OMT]-Ile-Asp-Leu-Asp-Leu-Val-amide ({Ac-Leu-Asn-L‑OMT}-IDLDLV-NH2) [peptide no. 9]”, the IC50 in experiment [4] was found to be 22 µM.
As for `CC[C@H](C)[C@H](NC(=O)[C@H](CC(N)=O)NC(=O)[C@@H](NC(=O)[C@H](Cc1ccc(OC(C(=O)O)C(=O)O)cc1)NC(=O)[C@H](CC(N)=O)NC(C)=O)C(C)C)C(=O)N[C@@H](CCC(=O)O)C(N)=O` [peptide no. 8, Ac-Asn-[L-OMT]-Val-Asn-Ile-Glu-amide] (Ac-NY(X1)VNIE-NH2), the “activity in Grb2 binding assay” value on Grb2 SH2 domain is “essentially inactive”.
For the compound `CC[C@H](C)[C@H](NC(=O)[C@H](CCC(=O)O)NC(=O)[C@H](CCC(=O)O)NC(=O)[C@H](Cc1ccc(OC(C(=O)O)C(=O)O)cc1)NC(=O)[C@H](CCC(N)=O)NC(C)=O)C(=O)N1CCC[C@H]1C(N)=O` [peptide no. 7, Ac-Gln-[L-OMT]-Glu-Glu-Ile-Pro-amide] (Ac-QY(X1)EEIP-NH2), the IC50 on Src SH2 domain is greater than 200 µM.
